Assay results as given in ChEMBL document CHEMBL1671662, “In vitro activities of telavancin and six comparator agents against anaerobic bacterial isolates” (2009).

Columns and labels:
Type in all cases: functional
Hoylesella oralis = experiment: Antibacterial activity against Prevotella oralis by CLSI M11-A6 agar dilution method in presence of beta-lactamase inhibitor Sulbactam
Clostridium bartlettii = experiment: Antibacterial activity against Clostridium bartlettii by CLSI M11-A6 agar dilution method in presence of beta-lactamase inhibitor Sulbactam; settings: Intestinibacter bartlettii
[1] = test system: Bifidobacterium adolescentis; experiment: Antibacterial activity against Bifidobacterium adolescentis by CLSI M11-A6 agar dilution method in presence of beta-lactamase inhibitor Sulbactam
Odoribacter splanchnicus = experiment: Antibacterial activity against Bacteroides splanchnicus by CLSI M11-A6 agar dilution method in presence of beta-lactamase inhibitor Sulbactam
[2] = test system: Clostridium celerecrescens; experiment: Antibacterial activity against Clostridium celerecrescens by CLSI M11-A6 agar dilution method in presence of beta-lactamase inhibitor Sulbactam; settings: Lacrimispora celerecrescens
[3] = test system: Bifidobacterium pseudolongum; experiment: Antibacterial activity against Bifidobacterium pseudolongum by CLSI M11-A6 agar dilution method in presence of beta-lactamase inhibitor Sulbactam
Parvimonas micra = experiment: Antibacterial activity against Peptostreptococcus micros by CLSI M11-A6 agar dilution method in presence of beta-lactamase inhibitor Sulbactam
Clostridium sporogenes = experiment: Antibacterial activity against Clostridium sporogenes by CLSI M11-A6 agar dilution method in presence of beta-lactamase inhibitor Sulbactam
[4] = test system: Sutterella wadsworthensis; experiment: Antibacterial activity against Sutterella wadsworthensis by CLSI M11-A6 agar dilution method in presence of beta-lactamase inhibitor Sulbactam
Clostridium sp. = experiment: Antibacterial activity against Clostridium sp. by CLSI M11-A6 agar dilution method in presence of beta-lactamase inhibitor Sulbactam
[5] = test system: Ruminococcus flavefaciens; experiment: Antibacterial activity against Ruminococcus flavefaciens by CLSI M11-A6 agar dilution method in presence of beta-lactamase inhibitor Sulbactam
Clostridium scindens = experiment: Antibacterial activity against Clostridium scindens by CLSI M11-A6 agar dilution method in presence of beta-lactamase inhibitor Sulbactam
Streptococcus anginosus = experiment: Antibacterial activity against Streptococcus anginosus by CLSI M11-A6 agar dilution method in presence of beta-lactamase inhibitor Sulbactam
Prevotella disiens = experiment: Antibacterial activity against Prevotella disiens by CLSI M11-A6 agar dilution method in presence of beta-lactamase inhibitor Sulbactam
[6] = test system: Bacteroides thetaiotaomicron; experiment: Antibacterial activity against Bacteroides thetaiotaomicron by CLSI M11-A6 agar dilution method in presence of beta-lactamase inhibitor Sulbactam
Prevotella bivia = experiment: Antibacterial activity against Prevotella bivia by CLSI M11-A6 agar dilution method in presence of beta-lactamase inhibitor Sulbactam
[7] = test system: Paraclostridium bifermentans; experiment: Antibacterial activity against Clostridium bifermentans by CLSI M11-A6 agar dilution method in presence of beta-lactamase inhibitor Sulbactam
Clostridium disporicum = experiment: Antibacterial activity against Clostridium disporicum by CLSI M11-A6 agar dilution method in presence of beta-lactamase inhibitor Sulbactam
Bacteroides fragilis = experiment: Antibacterial activity against Bacteroides fragilis by CLSI M11-A6 agar dilution method in presence of beta-lactamase inhibitor Sulbactam
Finegoldia magna = experiment: Antibacterial activity against Finegoldia magna by CLSI M11-A6 agar dilution method in presence of beta-lactamase inhibitor Sulbactam
Ruminococcus obeum = experiment: Antibacterial activity against Ruminococcus obeum by CLSI M11-A6 agar dilution method in presence of beta-lactamase inhibitor Sulbactam; settings: Blautia obeum
Bifidobacterium longum = experiment: Antibacterial activity against Bifidobacterium longum by CLSI M11-A6 agar dilution method in presence of beta-lactamase inhibitor Sulbactam
Clostridium leptum = experiment: Antibacterial activity against Clostridium leptum by CLSI M11-A6 agar dilution method in presence of beta-lactamase inhibitor Sulbactam
Prevotella nigrescens = experiment: Antibacterial activity against Prevotella nigrescens by CLSI M11-A6 agar dilution method in presence of beta-lactamase inhibitor Sulbactam
Hoylesella loescheii = experiment: Antibacterial activity against Prevotella loescheii by CLSI M11-A6 agar dilution method in presence of beta-lactamase inhibitor Sulbactam
[8] = test system: Peptoniphilus asaccharolyticus; experiment: Antibacterial activity against Peptoniphilus asaccharolyticus by CLSI M11-A6 agar dilution method in presence of beta-lactamase inhibitor Sulbactam
Actinomyces naeslundii = experiment: Antibacterial activity against Actinomyces naeslundii by CLSI M11-A6 agar dilution method in presence of beta-lactamase inhibitor Sulbactam
Holdemania filiformis = experiment: Antibacterial activity against Holdemania filiformis by CLSI M11-A6 agar dilution method in presence of beta-lactamase inhibitor Sulbactam
Eggerthella lenta = experiment: Antibacterial activity against Eggerthella lenta by CLSI M11-A6 agar dilution method in presence of beta-lactamase inhibitor Sulbactam
Clostridium beijerinckii = experiment: Antibacterial activity against Clostridium beijerinckii by CLSI M11-A6 agar dilution method in presence of beta-lactamase inhibitor Sulbactam
Ruminococcus lactaris = experiment: Antibacterial activity against Ruminococcus lactaris by CLSI M11-A6 agar dilution method in presence of beta-lactamase inhibitor Sulbactam
Ruminococcus torques = experiment: Antibacterial activity against Ruminococcus torques by CLSI M11-A6 agar dilution method in presence of beta-lactamase inhibitor Sulbactam; settings: Mediterraneibacter torques
Clostridioides difficile = experiment: Antibacterial activity against Clostridium difficile by CLSI M11-A6 agar dilution method in presence of beta-lactamase inhibitor Sulbactam
Clostridium butyricum = experiment: Antibacterial activity against Clostridium butyricum by CLSI M11-A6 agar dilution method in presence of beta-lactamase inhibitor Sulbactam
[9] = test system: Propionibacterium propionicum; experiment: Antibacterial activity against Propionibacterium propionicus by CLSI M11-A6 agar dilution method in presence of beta-lactamase inhibitor Sulbactam; settings: Arachnia propionica

CC1(C)S[C@@H]2[C@H](NC(=O)[C@H](N)c3ccccc3)C(=O)N2[C@H]1C(=O)O [AMPICILLIN]
≤ 0.12 µg/mL: MIC50 (Hoylesella oralis) | MIC50 [5] | MIC50 (Prevotella disiens) | MIC50 (Prevotella bivia) | MIC50 (Ruminococcus obeum) | MIC50 (Prevotella nigrescens) | MIC50 (Hoylesella loescheii) | MIC50 (Ruminococcus lactaris) | MIC50 (Ruminococcus torques)
8 µg/mL: MIC90 (Bacteroides fragilis)
4 µg/mL: MIC90 (Odoribacter splanchnicus) | MIC50 [6] | MIC90 (Clostridioides difficile)
0.25 µg/mL: MIC50 (Clostridium bartlettii) | MIC50 [1] | MIC50 [2] | MIC50 [3] | MIC50 (Parvimonas micra) | MIC50 (Clostridium sporogenes) | MIC [4] | MIC50 (Clostridium sp.) | MIC50 (Clostridium scindens) | MIC50 [7] | MIC50 (Clostridium disporicum) | MIC50 (Finegoldia magna) | MIC90 (Ruminococcus obeum) | MIC50 (Bifidobacterium longum) | MIC50 (Clostridium leptum) | MIC50 [8] | MIC50 (Actinomyces naeslundii) | MIC50 (Holdemania filiformis) | MIC50 (Eggerthella lenta) | MIC50 (Clostridium beijerinckii) | MIC50 (Clostridium butyricum) | MIC50 [9]
1 µg/mL: MIC90 (Clostridium bartlettii) | MIC90 [1] | MIC (Odoribacter splanchnicus) | MIC50 (Odoribacter splanchnicus) | MIC90 [2] | MIC90 [3] | MIC90 (Clostridium sporogenes) | MIC90 (Clostridium sp.) | MIC90 [5] | MIC90 (Clostridium scindens) | MIC90 [7] | MIC90 (Clostridium disporicum) | MIC50 (Bacteroides fragilis) | MIC90 (Bifidobacterium longum) | MIC90 (Clostridium leptum) | MIC90 (Actinomyces naeslundii) | MIC90 (Holdemania filiformis) | MIC90 (Eggerthella lenta) | MIC90 (Clostridium beijerinckii) | MIC90 (Ruminococcus lactaris) | MIC90 (Ruminococcus torques) | MIC90 (Clostridium butyricum) | MIC90 [9]
2 µg/mL: MIC90 (Hoylesella oralis) | MIC90 (Prevotella disiens) | MIC90 (Prevotella bivia) | MIC90 (Prevotella nigrescens) | MIC90 (Hoylesella loescheii) | MIC (Clostridioides difficile) | MIC50 (Clostridioides difficile)
0.5 µg/mL: MIC90 (Parvimonas micra) | MIC50 (Streptococcus anginosus) | MIC90 (Streptococcus anginosus) | MIC90 (Finegoldia magna) | MIC90 [8]
16 µg/mL: MIC90 [6]
